Laboratory results from ChEMBL document CHEMBL1153371, “Antiseizure activity of novel gamma-aminobutyric acid (A) receptor subtype-selective benzodiazepine analogues in mice and rat models” (J Med Chem, 2009).
Calls of active or inactive are those of the source. No cut-off for these calls is given here.

How the values were obtained:
Rattus norvegicus [1] = assay: Toxicity in rat assessed as motor impairment at 50 mg/kg, po after 0.5 hrs by rotarod paradigm test; format: organism-based; set-up: dose 50 mg/kg, route oral; conditions: in vivo
Rattus norvegicus [2] = assay: Toxicity in rat assessed as motor impairment at 50 mg/kg, po after 1 hr by rotarod paradigm test; format: organism-based; set-up: dose 50 mg/kg, route oral; conditions: in vivo
Rattus norvegicus [3] = assay: Anticonvulsant activity in rat assessed as protection against subcutaneous metrazole-induced seizure at 50 mg/kg, ip after 0.5 hrs; format: functional
Rattus norvegicus [4] = assay: Anticonvulsant activity in rat assessed as protection against subcutaneous metrazole-induced seizure at 50 mg/kg, ip after 4 hrs; format: functional
Rattus norvegicus [5] = assay: Toxicity in rat assessed as motor impairment at 50 mg/kg, ip after 0.5 hrs by rotarod paradigm test; format: organism-based; set-up: dose 50 mg/kg, route intraperitoneal; conditions: in vivo
Rattus norvegicus [6] = assay: Toxicity in rat assessed as motor impairment at 50 mg/kg, ip after 4 hrs by rotarod paradigm test; format: organism-based; set-up: dose 50 mg/kg, route intraperitoneal; conditions: in vivo
[7] = target: GABA-A receptor; alpha-1/beta-3/gamma-2 (Homo sapiens) (UniProt P14867+P18507+P28472); assay: Activity at GABAA alpha-1-beta-3-gamma-2 receptor expressed in oocytes assessed as stimulation of GABA-induced current at 1 uM relative to control; format: cell-based; conditions: Oocyte
[8] = target: GABA-A receptor; alpha-2/beta-3/gamma-2 (Homo sapiens) (UniProt P18507+P28472+P47869); assay: Activity at GABAA alpha-2-beta-3-gamma-2 receptor expressed in oocytes assessed as stimulation of GABA-induced current at 1 uM relative to control; format: cell-based; conditions: Oocyte
[9] = target: T1, Gamma-aminobutyric acid receptor subunit alpha-3 (Homo sapiens) (UniProt P34903); assay: Activity at GABAA alpha-3-beta-3-gamma-2 receptor expressed in oocytes assessed as stimulation of GABA-induced current at 1 uM relative to control; format: cell-based; conditions: Oocyte
T1 sequence (whole entry): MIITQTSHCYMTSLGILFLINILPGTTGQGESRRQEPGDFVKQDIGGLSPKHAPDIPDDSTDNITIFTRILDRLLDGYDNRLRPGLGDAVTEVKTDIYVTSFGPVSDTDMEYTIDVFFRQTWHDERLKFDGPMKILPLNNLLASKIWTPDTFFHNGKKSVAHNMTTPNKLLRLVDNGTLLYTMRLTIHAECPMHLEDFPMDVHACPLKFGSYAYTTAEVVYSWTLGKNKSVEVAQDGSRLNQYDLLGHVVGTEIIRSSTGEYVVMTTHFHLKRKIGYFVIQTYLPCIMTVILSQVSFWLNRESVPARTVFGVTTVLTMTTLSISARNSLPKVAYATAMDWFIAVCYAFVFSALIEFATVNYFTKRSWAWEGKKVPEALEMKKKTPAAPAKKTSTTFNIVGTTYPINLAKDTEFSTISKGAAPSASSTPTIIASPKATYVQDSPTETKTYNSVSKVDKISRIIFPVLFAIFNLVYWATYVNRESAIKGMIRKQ

[10] = target: GABA-A receptor; alpha-5/beta-3/gamma-2 (Homo sapiens) (UniProt P18507+P28472+P31644); assay: Activity at GABAA alpha-5-beta-3-gamma-2 receptor expressed in oocytes assessed as stimulation of GABA-induced current at 1 uM relative to control; format: cell-based; conditions: Oocyte
Rattus norvegicus [11] = assay: Anticonvulsant activity in rat assessed as protection against maximal electroshock-induced seizure at 30 mg/kg, ip and po after 0.5 hrs; format: functional, organism-based; set-up: dose 30 mg/kg
Rattus norvegicus [12] = assay: Anticonvulsant activity in rat assessed as protection against maximal electroshock-induced seizure at 30 mg/kg, ip and po after 4 hrs; format: functional, organism-based; set-up: dose 30 mg/kg
Rattus norvegicus [13] = assay: Anticonvulsant activity in rat assessed as protection against subcutaneous metrazole-induced seizure at 50 mg/kg, po after 0.5 hrs; format: functional
Rattus norvegicus [14] = assay: Toxicity in rat assessed as motor impairment at 50 mg/kg, po after 4 hrs by rotarod paradigm test; format: organism-based; set-up: dose 50 mg/kg, route oral; conditions: in vivo
Rattus norvegicus [15] = assay: Anticonvulsant activity in rat assessed as protection against subcutaneous metrazole-induced seizure at 15 mg/kg, po after 4 hrs; format: functional
Mus musculus [16] = assay: Anticonvulsant activity in ip dosed mouse assessed as protection against maximal electroshock-induced seizure; format: functional
Mus musculus [17] = assay: Anticonvulsant activity in ip dosed mouse assessed as protection against subcutaneous metrazole-induced seizure; format: functional
Rattus norvegicus [18] = assay: Anticonvulsant activity in po dosed rat assessed as protection against maximal electroshock-induced seizure; format: functional
Rattus norvegicus [19] = assay: Anticonvulsant activity in po dosed rat assessed as protection against subcutaneous metrazole-induced seizure; format: functional
[20] = Therapeutic index, ratio of TD50 for ip dosed mouse to ED50 for protection against subcutaneous metrazole-induced seizure in ip dosed mouse; format: organism-based; conditions: in vivo, read-out: Ratio TD50/ED50
[21] = Therapeutic index, ratio of TD50 for po dosed rat to ED50 for protection against subcutaneous metrazole-induced seizure in po dosed rat; format: organism-based; conditions: in vivo, read-out: Ratio TD50/ED50
Rattus norvegicus [22] = assay: Anticonvulsant activity in rat assessed as blockade against kindle motor-induced seizure at 10 mg/kg, ip by hippocampal kindling screen test; format: functional, organism-based; set-up: dose 10 mg/kg; conditions: Hippocampus
Rattus norvegicus [23] = assay: Anticonvulsant activity against kindle motor-induced seizure in rat assessed as after discharge duration at 10 mg/kg, ip by hippocampal kindling screen test; format: functional, Hippocampus; conditions: route intraperitoneal
Rattus norvegicus [24] = assay: Toxicity in rat assessed as motor impairment at 3 mg/kg, ip after 1 hr by rotarod paradigm test; format: organism-based; set-up: dose 3 mg/kg, route intraperitoneal; conditions: in vivo
[25] = Toxicity in ip dosed mouse assessed as minimal muscular or neurological impairment by rotarod paradigm test; format: organism-based; conditions: in vivo
[26] = Toxicity in po dosed rat assessed as minimal muscular or neurological impairment by rotarod paradigm test; format: organism-based; conditions: in vivo
Rattus norvegicus [27] = assay: Anticonvulsant activity in rat assessed as protection against subcutaneous metrazole-induced seizure at 50 mg/kg, po after 4 hrs; format: functional, organism-based; set-up: dose 50 mg/kg
Rattus norvegicus [28] = assay: Anticonvulsant activity in rat assessed as blockade against kindle motor-induced seizure at 50 mg/kg, ip by hippocampal kindling screen test; format: functional, organism-based; set-up: dose 50 mg/kg; conditions: Hippocampus
Rattus norvegicus [29] = assay: Anticonvulsant activity against kindle motor-induced seizure in rat assessed as after discharge duration at 50 mg/kg, ip by hippocampal kindling screen test; format: functional, Hippocampus; conditions: route intraperitoneal
Rattus norvegicus [30] = assay: Toxicity in rat assessed as motor impairment at 30 mg/kg, ip after 1 hr by rotarod paradigm test; format: organism-based; set-up: dose 30 mg/kg, route intraperitoneal; conditions: in vivo
Mus musculus [31] = assay: Anticonvulsant activity in mouse assessed as protection against maximal electroshock-induced seizure at 100 mg/kg, ip after 0.5 hrs; format: functional, organism-based; set-up: dose 100 mg/kg
Mus musculus [32] = assay: Anticonvulsant activity in mouse assessed as protection against maximal electroshock-induced seizure at 100 mg/kg, ip after 4 hrs; format: functional, organism-based; set-up: dose 100 mg/kg
Mus musculus [33] = assay: Anticonvulsant activity in mouse assessed as protection against subcutaneous metrazole-induced seizure at 100 mg/kg, ip after 4 hrs; format: functional, organism-based; set-up: dose 100 mg/kg
Mus musculus [34] = assay: Toxicity in mouse assessed as motor impairment at 100 mg/kg, ip after 0.5 hrs by rotarod paradigm test; format: organism-based; set-up: dose 100 mg/kg, route intraperitoneal; conditions: in vivo
Mus musculus [35] = assay: Toxicity in mouse assessed as motor impairment at 100 mg/kg, ip after 4 hrs by rotarod paradigm test; format: organism-based; set-up: dose 100 mg/kg, route intraperitoneal; conditions: in vivo
Rattus norvegicus [36] = assay: Toxicity in rat assessed as motor impairment at 50 mg/kg, ip after 1 hr by rotarod paradigm test; format: organism-based; set-up: dose 50 mg/kg, route intraperitoneal; conditions: in vivo
Rattus norvegicus [37] = assay: Toxicity in rat assessed as sedative effect at 500 mg/kg, po; format: organism-based; set-up: dose 500 mg/kg, route oral; conditions: in vivo
Rattus norvegicus [38] = assay: Anticonvulsant activity in rat assessed as blockade against kindle motor-induced seizure at 100 mg/kg, ip by hippocampal kindling screen test; format: functional, organism-based; set-up: dose 100 mg/kg; conditions: Hippocampus
Rattus norvegicus [39] = assay: Anticonvulsant activity against kindle motor-induced seizure in rat assessed as after discharge duration at 100 mg/kg, ip by hippocampal kindling screen test; format: functional, Hippocampus; conditions: route intraperitoneal

SMILES | Activity (Rattus norvegicus [5]) | Activity [7] [%] | Activity [8] [%] | Activity [9] [%] | Activity [10] [%] | ED50 (Mus musculus [16]) [mg/kg] | ED50 (Mus musculus [17]) [mg/kg] | ED50 (Rattus norvegicus [18]) [mg/kg] | ED50 (Rattus norvegicus [19]) [mg/kg] | selectivity ratio [20] | selectivity ratio [21] | TD50 [25] [mg/kg] | TD50 [26] [mg/kg] | other results
CCOC(=O)c1ncn2c1CN=C(c1ccccc1F)c1cc(I)ccc1-2 | Non-toxic | – | – | – | – | – | – | – | – | – | – | – | – | Activity (Rattus norvegicus [1]): Non-toxic; Activity (Rattus norvegicus [2]): Non-toxic; Activity (Rattus norvegicus [3]): inactive; Activity (Rattus norvegicus [4]): inactive; Activity (Rattus norvegicus [6]): Non-toxic
CN1C(=O)CN=C(c2ccccc2)c2cc(Cl)ccc21 | – | 345 | 508 | 776 | 420 | – | – | – | – | – | – | – | – | –
C#Cc1ccc2c(c1)C(c1ccccc1Cl)=NCc1nnc(C)n1-2 | – | – | – | – | – | > 6 | 1.03 | > 150 | 1.58 | 2.8 | > 105 | – | – | Activity (Rattus norvegicus [11]): inactive; Activity (Rattus norvegicus [12]): inactive; Activity (Rattus norvegicus [13]): Active; Activity (Rattus norvegicus [1]): Non-toxic; Activity (Rattus norvegicus [14]): Non-toxic; Activity (Rattus norvegicus [15]): 50%; Activity (Rattus norvegicus [22]): Active; Activity (Rattus norvegicus [23]): 92 s; Activity (Rattus norvegicus [24]): Non-toxic
O=C1CN=C(c2ccccc2Cl)c2cc([N+](=O)[O-])ccc2N1 [CLONAZEPAM] | – | – | – | – | – | 25.6 | 0.02 | 7.86 | 0.61 | 13 | 3.9 | 0.26 | 2.38 | –
O=C1NC(=O)C(c2ccccc2)(c2ccccc2)N1 [PHENYTOIN] | – | – | – | – | – | 5.64 | > 50 | 28.1 | > 500 | < 0.82 | 2 | – | > 1000 | –
C#Cc1ccc2c(c1)C(c1ccccc1F)=NCc1c(C(=O)OCC)ncn1-2 | Non-toxic | 248 | 410 | 596 | 246 | > 200 | 8.87 | > 250 | 23.7 | > 44 | > 21.1 | > 400 | > 500 | Activity (Rattus norvegicus [11]): inactive; Activity (Rattus norvegicus [27]): Active; Activity (Rattus norvegicus [6]): Non-toxic; Activity (Rattus norvegicus [28]): Active; Activity (Rattus norvegicus [29]): 38 s; Activity (Rattus norvegicus [30]): Non-toxic
C#Cc1ccc2c(c1)C(c1ccccn1)=NCc1c(C(=O)OCC)ncn1-2 | Non-toxic | 167 | 313 | 346 | 174 | > 300 | 16.3 | > 250 | 98.5 | > 30.2 | > 5 | > 500 | > 500 | Activity (Mus musculus [31]): inactive; Activity (Mus musculus [32]): inactive; Activity (Mus musculus [33]): inactive; Activity (Mus musculus [34]): Non-toxic; Activity (Mus musculus [35]): Non-toxic; Activity (Rattus norvegicus [12]): inactive; Activity (Rattus norvegicus [13]): 100%; Activity (Rattus norvegicus [3]): 88%; Activity (Rattus norvegicus [4]): 63%; Activity (Rattus norvegicus [36]): Non-toxic; Activity (Rattus norvegicus [37]): Non-toxic; Activity (Rattus norvegicus [38]): Active; Activity (Rattus norvegicus [39]): 59 s; Activity (Rattus norvegicus [30]): Non-toxic
NC(=O)N1c2ccccc2C=Cc2ccccc21 [CARBAMAZEPINE] | – | – | – | – | – | 7.81 | > 50 | 5.35 | > 250 | – | – | – | – | –
